Counter-ions that a name gives are not always drawn.
Molecular target: T1, human LOXL2 (Homo sapiens, UniProt Q9Y4K0)
T1 construct: expressed in transfected cells; secreted protein in 10-20x concentrated conditioned media
T1 sequence (Q9Y4K0 26-774): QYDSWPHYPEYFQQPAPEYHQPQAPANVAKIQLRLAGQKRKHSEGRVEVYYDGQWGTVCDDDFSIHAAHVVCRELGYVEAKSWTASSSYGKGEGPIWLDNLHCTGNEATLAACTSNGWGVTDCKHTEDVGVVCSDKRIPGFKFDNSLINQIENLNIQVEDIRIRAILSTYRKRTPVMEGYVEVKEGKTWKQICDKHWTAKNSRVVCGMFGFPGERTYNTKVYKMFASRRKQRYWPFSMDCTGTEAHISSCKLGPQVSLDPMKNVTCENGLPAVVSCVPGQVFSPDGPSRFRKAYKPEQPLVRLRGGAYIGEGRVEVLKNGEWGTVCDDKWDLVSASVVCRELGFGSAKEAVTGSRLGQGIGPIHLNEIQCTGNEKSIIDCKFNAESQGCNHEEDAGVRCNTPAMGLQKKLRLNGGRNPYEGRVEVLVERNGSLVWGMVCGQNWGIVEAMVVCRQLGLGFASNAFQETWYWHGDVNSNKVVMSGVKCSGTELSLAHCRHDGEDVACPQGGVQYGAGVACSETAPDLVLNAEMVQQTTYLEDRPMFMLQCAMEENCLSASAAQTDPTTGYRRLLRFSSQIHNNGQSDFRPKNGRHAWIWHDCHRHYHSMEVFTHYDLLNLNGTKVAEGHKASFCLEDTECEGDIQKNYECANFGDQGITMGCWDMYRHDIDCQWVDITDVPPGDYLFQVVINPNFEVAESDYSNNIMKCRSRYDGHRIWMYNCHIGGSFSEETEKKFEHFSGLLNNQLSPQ
Assay: Human LOXL2 Amine Oxidase Activity Assay (Amplex Red fluorescence)
Format: biochemical
Details: concentrated conditioned media from CHO cells stably expressing human LOXL2, test compound incubated 2 h at 37° C., pH8, DAP substrate
Method: Example B-1: Human LOXL2 Amine Oxidase Activity Assay
LOXL2 amine oxidase activity is evaluated by measuring Amplex Red fluorescence using 10-20× concentrated conditioned media from CHO cells stably expressing human LOXL2. To assay for amine oxidase activity, 10 μL of the concentrated conditioned media is incubated with 2 μL of test compound in DMSO and 73 μL Assay Buffer (50 mM Borate Buffer, pH8) for 2 h at 37° C. After the 2 h incubation, 5 μl of 10 mM 1,5-Diaminopentane (DAP) diluted in Assay Buffer and 10 μl of Amplex Red Mix (8.5 μl Assay Buffer+0.5 μl of 10 mM Amplex Red+1 μl of 500 U/ml Horseradish Peroxidase) are added and the plate mixed and immediately placed on the FlexStaion for fluorescence measurements. Fluorescence is read in kinetic mode every 2 min for 1 hour at excitation=544 and emission=590. The amine oxidase activity is calculated from the slope of the linear portion of the curve.

SMILES | IC50
C#CCOc1cccc2c(=O)cc(CN)oc12 [Compound 1-53, 2-(Aminomethyl)-8-(prop-2-yn-1-yloxy)-4H-chromen-4-one hydrochloride] | 300 to 1000 nM
CN(C)C(=O)COc1ccc2c(=O)cc(CN)oc2c1 [Compound 1-32, 2-((2-(Aminomethyl)-4-oxo-4H-chromen-7-yl)oxy)-N,N-dimethylacetamide hydrochloride] | 300 to 1000 nM
CS(=O)(=O)CCNC(=O)c1ccc2oc(CN)cc(=O)c2c1 [Compound 1-26, 2-(Aminomethyl)-N-(2-(methylsulfonyl)ethyl)-4-oxo-4H-chromene-6-carboxamide hydrochloride] | 300 to 1000 nM
COc1cc2c(=O)cc(CN)oc2cc1OCc1ccccc1 [Compound 1-69, 2-(Aminomethyl)-7-(benzyloxy)-6-methoxy-4H-chromen-4-one hydrochloride] | < 300 nM
NCc1cc(=O)c2ccc(OCC#Cc3ccccc3)cc2o1 [Compound 1-63, 2-(Aminomethyl)-7-((3-phenylprop-2-yn-1-yl)oxy)-4H-chromen-4-one hydrochloride] | < 300 nM
CN(C)C(=O)c1ccc2oc(CN)cc(=O)c2c1 [Compound 1-18, 2-(Aminomethyl)-N,N-dimethyl-4-oxo-4H-chromene-6-carboxamide hydrochloride] | > 1000 nM
C#Cc1cccc2c(=O)cc(CN)oc12 [Compound 1-51, 2-(Aminomethyl)-8-ethynyl-4H-chromen-4-one hydrochloride] | > 1000 nM
NCc1cc(=O)c2ccc(OCc3cc4ccccc4s3)cc2o1 [Compound 1-66, 2-(Aminomethyl)-7-(benzo[b]thiophen-2-ylmethoxy)-4H-chromen-4-one hydrochloride] | < 300 nM
NCc1cc(=O)c2cc(N3CC[C@H](O)C3)ccc2o1 [Compound 1-20, (S)-2-(Aminomethyl)-6-(3-hydroxypyrrolidin-1-yl)-4H-chromen-4-one hydrochloride] | 300 to 1000 nM
NCc1cc(=O)c2cc(-c3cn(-c4ccccc4)nn3)ccc2o1 [Compound 1-14, 2-(Aminomethyl)-6-(1-phenyl-1H-1,2,3-triazol-4-yl)-4H-chromen-4-one hydrochloride] | < 300 nM
NCc1cc(=O)c2cc(-c3cnc4ccccc4c3)ccc2o1 [Compound 1-9, 2-(Aminomethyl)-6-(quinolin-3-yl)-4H-chromen-4-one hydrochloride] | < 300 nM
NCc1cc(=O)c2cccc(OCc3ccccc3)c2o1 [Compound 1-54, 2-(Aminomethyl)-8-(benzyloxy)-4H-chromen-4-one hydrochloride] | 300 to 1000 nM
COc1ccc2c(=O)cc(CN)oc2c1 [Compound 1-28, 2-(Aminomethyl)-7-methoxy-4H-chromen-4-one hydrochloride] | < 300 nM
NCc1cc(=O)c2ccc(OCc3ccccc3)cc2o1 [Compound 1-29, 2-(Aminomethyl)-7-(benzyloxy)-4H-chromen-4-one hydrochloride] | < 300 nM
C#CCOc1ccc2c(=O)cc(CN)oc2c1 [Compound 1-45, 2-(aminomethyl)-7-(prop-2-yn-1-yloxy)-4H-chromen-4-one hydrochloride] | < 300 nM
NCc1cc(=O)c2cc(C(=O)N3CC[C@@H](N)C3)ccc2o1 [Compound 1-23, (R)-2-(Aminomethyl)-6-(3-aminopyrrolidine-1-carbonyl)-4H-chromen-4-one dihydrochloride] | 300 to 1000 nM

SMILES | IC50
Cn1cc(-c2ccc3oc(CN)cc(=O)c3c2)cn1 [Compound 1-12, 2-(Aminomethyl)-6-(1-methyl-1H-pyrazol-4-yl)-4H-chromen-4-one hydrochloride] | < 300 nM
CN(C)C(=O)COc1ccc2oc(CN)cc(=O)c2c1 [Compound 1-35, 2-((2-(Aminomethyl)-4-oxo-4H-chromen-6-yl)oxy)-N,N-dimethylacetamide hydrochloride] | 300 to 1000 nM
NCc1cc(=O)c2ccc(N3CCCc4ccccc43)cc2o1 [Compound 1-42, 2-(Aminomethyl)-7-(3,4-dihydroquinolin-1(2H)-yl)-4H-chromen-4-one hydrochloride] | < 300 nM
NCc1cc(=O)c2ccc(N3CCN(C(=O)c4ccccc4)CC3)cc2o1 [Compound 1-41, 2-(Aminomethyl)-7-(4-benzoylpiperazin-1-yl)-4H-chromen-4-one hydrochloride] | < 300 nM
Cn1cc(-c2ccc3oc(CN)cc(=O)c3c2)nn1 [Compound 1-13, 2-(Aminomethyl)-6-(1-methyl-1H-1,2,3-triazol-4-yl)-4H-chromen-4-one hydrochloride] | < 300 nM
Cn1cc(-c2ccc3c(=O)cc(CN)oc3c2)nn1 [Compound 1-39, 2-(Aminomethyl)-7-(1-methyl-1H-1,2,3-triazol-4-yl)-4H-chromen-4-one hydrochloride] | < 300 nM
NCc1cc(=O)c2cc(C(=O)NCCO)ccc2o1 [Compound 1-59, 2-(Aminomethyl)-N-(2-hydroxyethyl)-4-oxo-4H-chromene-6-carboxamide hydrochloride] | 300 to 1000 nM
NCc1cc(=O)c2ccc(N3CCN(c4ccccc4)CC3)cc2o1 [Compound 1-40, 2-(Aminomethyl)-7-(4-phenylpiperazin-1-yl)-4H-chromen-4-one hydrochloride] | < 300 nM
NCc1cc(=O)c2cc(C(=O)NCCS(N)(=O)=O)ccc2o1 [Compound 1-22, 2-(Aminomethyl)-4-oxo-N-(2-sulfamoylethyl)-4H-chromene-6-carboxamide hydrochloride] | 300 to 1000 nM
NCc1cc(=O)c2ccc(OCc3cn(-c4ccccc4)nn3)cc2o1 [Compound 1-47, 2-(Aminomethyl)-7-((1-phenyl-1H-1,2,3-triazol-4-yl)methoxy)-4H-chromen-4-one hydrochloride] | < 300 nM
NCc1cc(=O)c2ccc(Nc3cccc(C(=O)Nc4ccccc4)c3)cc2o1 [Compound 1-49, 3-((2-(Aminomethyl)-4-oxo-4H-chromen-7-yl)amino)-N-phenylbenzamide hydrochloride] | < 300 nM
NCc1cc(=O)c2ccc(Nc3cnn(-c4ccccc4)c3)cc2o1 [Compound 1-70, 2-(Aminomethyl)-7-((1-phenyl-1H-pyrazol-4-yl)amino)-4H-chromen-4-one hydrochloride] | < 300 nM
NCc1cc(=O)c2ccc(Br)cc2o1 [Compound 1-2, 2-(Aminomethyl)-7-bromo-4H-chromen-4-one hydrochloride] | < 300 nM
CC(C)COc1ccc2c(=O)cc(CN)oc2c1 [Compound 1-44, 2-(Aminomethyl)-7-isobutoxy-4H-chromen-4-one hydrochloride] | < 300 nM
CC(C)(O)C#Cc1ccc2oc(CN)cc(=O)c2c1 [Compound 1-4, 2-(Aminomethyl)-6-(3-hydroxy-3-methylbut-1-yn-1-yl)-4H-chromen-4-one hydrochloride] | < 300 nM
NCc1cc(=O)c2cc(C(=O)N3C[C@@H](O)[C@H](F)C3)ccc2o1 (racemic) [Compound 1-25, Racemic-trans-2-(aminomethyl)-6-(3-fluoro-4-hydroxypyrrolidine-1-carbonyl)-4H-chromen-4-one hydrochloride] | 300 to 1000 nM

Reference: patent US20180215727A1, “LYSYL OXIDASE-LIKE 2 INHIBITORS AND USES THEREOF” (PharmAkea, Inc., priority 2015, published 2018)
